Reference: publication PMC6539231, “4,5-Diaryl 3(2H)Furanones: Anti-Inflammatory Activity and Influence on Cancer Growth” (Molecules, 2019)
“Also recorded” adds a separate entry of the source.

Columns and labels:
MCF-7 cells [1] = assay: Combination (synergy) growth assay in MCF-7 cells, Combination Index; format: cell-based, human; conditions: MCF-7, 48 h; for Combination Effect with celecoxib / CI, combination with celecoxib: + 29 μM cel; for % Cell Growth, combination with celecoxib: + 29 μM cel (21.3 μM 1h, 2.9 μM 1g, 3.8 μM x-1); for CI, combination with celecoxib: CI <1 synergy, >1 antagonism
MCF-7 cells [2] = assay: as above; format: cell-based, human; conditions: MCF-7, 48 h; for Combination Effect with 5-fluorouracil / CI, combination with 5-fluorouracil: + 0.3 μM 5-fu; for % Cell Growth, combination with 5-fluorouracil: + 0.3 μM 5-fu (21.3 μM 1h, 2.9 μM 1g, 3.8 μM x-1, 29 μM cel); for CI, combination with 5-fluorouracil / CI, combination with gefitinib: CI <1 synergy, >1 antagonism; for Combination Effect with gefitinib / CI, combination with gefitinib: + 70 μM gef; for % Cell Growth, combination with gefitinib: + 70 μM gef (27.5 μM 1h, 10 μM 1g, 10 μM x-1, 29 μM cel)
Experimental: In addition, exposure of the MCF-7 cells to each of the compounds in combination with each one of the two anti-neoplastic drugs was performed in order to study the synergistic effect of the compounds. The results are shown in Table 9 and Figure 5 and Figure 6.

ovine COX-1 = biological target: T1, ovine COX-1 (Ovis aries, UniProt P05979); assay: In vitro COX-1 inhibition (Cayman COX Inhibitor Screening Assay kit); format: biochemical; conditions: for % Inhibition (COX-1): Compound concentration 50 μΜ, arachidonic acid 0.1 μM
T1 construct: purchased Cayman Chemical Co., Ann Arbor, MI, USA
T1 sequence (P05979 25-600): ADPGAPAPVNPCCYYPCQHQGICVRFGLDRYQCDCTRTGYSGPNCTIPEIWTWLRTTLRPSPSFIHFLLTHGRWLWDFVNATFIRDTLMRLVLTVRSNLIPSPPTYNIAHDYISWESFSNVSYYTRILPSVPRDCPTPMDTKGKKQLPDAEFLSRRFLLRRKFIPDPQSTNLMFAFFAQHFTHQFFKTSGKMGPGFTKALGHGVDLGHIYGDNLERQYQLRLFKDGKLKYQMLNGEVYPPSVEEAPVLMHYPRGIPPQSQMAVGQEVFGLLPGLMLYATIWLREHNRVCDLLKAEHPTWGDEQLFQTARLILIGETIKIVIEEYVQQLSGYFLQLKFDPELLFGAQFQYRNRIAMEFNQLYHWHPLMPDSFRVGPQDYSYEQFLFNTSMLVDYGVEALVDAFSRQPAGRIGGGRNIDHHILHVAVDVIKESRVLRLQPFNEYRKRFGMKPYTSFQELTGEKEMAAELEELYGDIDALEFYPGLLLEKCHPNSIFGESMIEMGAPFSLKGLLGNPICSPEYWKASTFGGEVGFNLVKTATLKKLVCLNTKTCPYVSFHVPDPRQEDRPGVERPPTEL
Experimental: (§1) The COX-1 and COX-2 activities of the compounds were measured using ovine COX-1 and human recombinant COX-2 enzymes included in the “COX Inhibitor Screening Assay” kit provided by Cayman (Cayman Chemical Co., Ann Arbor, MI, USA) as reported previously

human recombinant COX-2 = biological target: T2, human recombinant COX-2 (Homo sapiens, UniProt P35354); assay: In vitro COX-2 inhibition (Cayman COX Inhibitor Screening Assay kit); format: biochemical; conditions: for % Inhibition (COX-2): Compound concentration 50 μΜ, arachidonic acid 0.1 μM
T2 construct: purchased Cayman Chemical Co., Ann Arbor, MI, USA
T2 sequence (P35354 18-604): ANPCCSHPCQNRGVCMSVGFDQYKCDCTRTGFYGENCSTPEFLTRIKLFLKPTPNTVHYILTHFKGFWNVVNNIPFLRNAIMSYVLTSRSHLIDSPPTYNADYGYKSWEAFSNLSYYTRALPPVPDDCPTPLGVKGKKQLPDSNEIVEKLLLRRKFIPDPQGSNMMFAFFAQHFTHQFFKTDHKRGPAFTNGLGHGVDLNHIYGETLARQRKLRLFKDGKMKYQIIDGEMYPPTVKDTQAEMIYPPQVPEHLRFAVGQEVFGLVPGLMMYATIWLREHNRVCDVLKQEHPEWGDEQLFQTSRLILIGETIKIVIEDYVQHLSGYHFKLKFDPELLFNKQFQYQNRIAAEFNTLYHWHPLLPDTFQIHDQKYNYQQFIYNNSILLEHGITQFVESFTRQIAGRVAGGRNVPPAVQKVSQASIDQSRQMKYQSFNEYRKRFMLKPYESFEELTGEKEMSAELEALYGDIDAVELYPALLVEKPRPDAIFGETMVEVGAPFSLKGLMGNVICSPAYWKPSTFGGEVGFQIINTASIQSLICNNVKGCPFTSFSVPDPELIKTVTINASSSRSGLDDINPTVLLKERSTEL
Experimental: as §1

MCF-7 cells [3] = assay: Growth inhibition assay, MCF-7 cells; format: cell-based, human; conditions: Homo sapiens, MCF7, 48 h, 48 h exposure
[4] = system: carrageenan mice paw oedema; assay: Carrageenin-induced mouse paw edema; format: in vivo, mice (AKR); conditions: Mus musculus, ip; Dose 0.1 µmol/g; intraperitoneally, simultaneously with carrageenin; read-out: CPE, %
Experimental: From the data of Table 7 it is obvious that anti-inflammatory activity of alkylsulfones and sulfoxides of furan-3(2H)-ones, including annelated derivatives are very similar.
The anti-inflammatory activity of compounds was performed using the carrageenan mice paw oedema assay. Animal of both sex (AKR), with exception of pregnant females were housed under standard conditions, receiving only water during the experimental period. […] The detailed description of the whole experiment reported previously. All the biological experiments were carried out in full compliance with the European Convention for the Protection of Vertebrate Animals used for Experimental or Other Scientific Purposes (ETS NO 123, Strasbourg, 03/18/1986): Strasbourg (France). European Treaty Series, № 123, March 18, 1986. 11 P. The project identification code and date of approval is 350880/3468 of 15-12-2014, University of Thessaloniki.

HSC-3 cells = assay: Growth inhibition assay, HSC-3 cells; conditions: for HSC-3 % Cell Growth: Compound concentration: 10μΜ; for IC50: Homo sapiens, HSC-3, 48 h, read-out: HSC-3 IC50 Values

% Inhibition (COX-1) (ovine COX-1) | IC50 (ovine COX-1; read-out: Experimental IC50 COX-1) | % Inhibition (COX-2) (human recombinant COX-2) | IC50 (human recombinant COX-2; read-out: Experimental IC50 COX-2) | IC50 (MCF-7 cells [3]) | melting point | SMILES | Combination Effect with celecoxib (MCF-7 cells [1]) | % Cell Growth, combination with celecoxib (MCF-7 cells [1]) | CI, combination with celecoxib (MCF-7 cells [1]) | Combination Effect with 5-fluorouracil (MCF-7 cells [2]) | % Cell Growth, combination with 5-fluorouracil (MCF-7 cells [2]) | CI, combination with 5-fluorouracil (MCF-7 cells [2]) | Combination Effect with gefitinib (MCF-7 cells [2]) | % Cell Growth, combination with gefitinib (MCF-7 cells [2]) | CI, combination with gefitinib (MCF-7 cells [2]) | inhibition in vivo at 0.1 µmol/g [4] | HSC-3 % Cell Growth (HSC-3 cells) | IC50 (HSC-3 cells) | HSC-3 growth inhibition (HSC-3 cells; concentration of 10 μΜ)
73% | 2.8 µM | 0% | > 50 µM | 10 µM | – | C[S+]([O-])c1ccc(C2=C(c3ccc(F)cc3)OC(C)(C)C2=O)cc1 (stereo not shown) [1g, 5-(4′-Fluorophenyl) 2,2-dimethyl-4-[4-(methylsulfinyl)phenyl]-furan-3(2H)-one] | synergism | 36.6% | 0.750 ± 0.025 < 1 | synergism | 19.1% | 0.058 ± 0.010 <1 | synergism | 36.5% | 0.780 ± 0.200 < 1 | 49% | 36 ± 4% | 7.5 µM | 64%
32% | – | 0% | – | 24 µM | 191 to 192 °C | CC1(C)OC(c2ccc(F)cc2)=C(c2ccc(S(C)(=O)=O)cc2)C1=O [1h, 5-(4′-Fluorophenyl)-2,2-dimethyl-4-[4′-(methylsulfonyl)phenyl]-furan-3(2H)-one] | antagonism | 38.6% | >1 | synergism | 27.3% | 0.533 ± 0.015 <1 | antagonistic effect; also recorded: antagonism | 45.9% | >1 | 48.8% | 100 ± 10% | 90 µM | –
